From publication PMC8588467, “Rational Design 2-Hydroxypropylphosphonium Salts as Cancer Cell Mitochondria-Targeted Vectors: Synthesis, Structure, and Biological Properties” (Molecules, 2021)
Where two headings read alike, the source gives them in different places.

Legend:
[1] = In vitro rhodamine B release, dialysis bag diffusion method; format: physicochemical; details: aqueous solution without nanoparticles; phosphate buffer 0.025 M, pH 7.4, 37 °C
Description: The monitoring of rhodamine B release from liposomes was performed using the dialysis bag diffusion method. Dialysis bags retain liposomes and allow the released rhodamine B to diffuse into the medium. The bags were soaked in Milli-Q water for 12 h before use. Then, 0.4 mL of liposomes were poured into the dialysis bag. The two bag ends were sealed with clamps. The bags were then placed in a vessel containing 100 mL of 0.025 M sodium phosphate buffer pH 7.4, the receiving phase. The vessel was placed in a thermostatic shaker (New Brunswick, NJ, USA) at 37 °C, under a stirring rate of 150 rpm. At predetermined time intervals, 0.5 mL of samples were withdrawn, and their absorbance at 554 nm was measured using Perkin Elmer λ35 (Perkin Elmer Instruments, Norwalk, CT, USA). All samples were analyzed in triplicate. The extinction coefficient of rhodamine B is 106,089 M^−1 cm^−1 at pH = 7.4.

[2] = test system: WI38 (diploid human embryo lung); assay: MTT cytotoxicity, normal cells WI38; format: cell-based; details: mean ± SD, triplicate, read-out: WI38 IC50 (normal cell line)
HuTu-80 cells [3] = assay: Mitochondrial membrane potential, JC-10 flow cytometry; format: cell-based, human; details: for % cells with J-aggregate (red, high membrane potential) / % cells with J-monomer (green, decreased membrane potential): JC-10; for effect on mitochondrial membrane potential: more pronounced with increase of concentration up to IC50
Excerpt: Apoptosis induction by 3a, b, k, j and 4c through the mitochondrial pathway and HuTu-80 cell line was studied by flow cytometry using the fluorescent dye JC-10 from the Mitochondria Membrane Potential Kit. JC-10 accumulated in the mitochondrial matrix and formed aggregates (J-aggregate) with red fluorescence in normal cells with a high mitochondrial membrane potential. The membrane potential decreased in apoptotic cells. JC-10 started to diffuse out from the mitochondria and converts to the monomeric form (J-monomer) and emits green fluorescence. This is recorded with a flow cytometer. […] The process became more pronounced with an increase of 3a, b, 3k, j and 4c concentrations up to IC50 (Figure 5 and Figure 6).
Cells were harvested at 2000 rpm for 5 min and then washed twice with ice-cold PBS, followed by resuspension in JC-10 (10 µg/mL) and incubation at 37 °C for 10 min. After the cells were rinsed three times and suspended in PBS, the JC-10 fluorescence was observed by flow cytometry (Guava easy Cyte, MERCK, NJ, USA).

[4] = test system: M-HeLa (human cervix epitheloid carcinoma); assay: MTT cytotoxicity, M-HeLa; format: cell-based; details: for IC50: MTT, mean ± SD, triplicate; for SI M-HeLa: IC50 normal cells (WI38) / IC50 cancer cells, ns = no selectivity
HuTu-80 cells [5] = assay: Induction of apoptosis, annexin V/propidium iodide flow cytometry; format: cell-based, human; details: IC50/2, 48-h incubation
Description: Apoptosis is one of the most significant mechanisms used for screening new anti-cancer agents. The apoptosis-inducing effect was carried out on lead compounds 3a, b, k, j and 4c showing high selectivity against HuTu-80 cells. The studies were carried out by flow cytometry at concentrations IC50/2 and IC50 (Figure 4). […] The percentage of apoptotic cells in early and late phases was slightly changed with increase compound concentration up to IC50.
HuTu 80 cells at 1 × 10^6 cells/well in a final volume of 2 mL were seeded into six-well plates. After 48 h of incubation, various concentrations of compounds 3a,b and 3k were added to wells.
The cells were harvested at 2000 rpm for 5 min and, then, washed twice with ice-cold PBS, followed by resuspension in binding buffer. Next, the samples were incubated with 5 μL of annexin V-Alexa Fluor 647 (Sigma–Aldrich, St. Louis, MO, USA) and 5 μL of propidium iodide for 15 min at room temperature in the dark. Finally, the cells were analyzed by flow cytometry (Guava easy Cyte, MERCK, Rahway, NJ, USA) within 1 h. The experiments were repeated three times.

[6] = test system: MCF-7 (human breast adenocarcinoma); assay: MTT cytotoxicity, MCF-7; format: cell-based; details: for IC50: mean ± SD, triplicate; for SI MCF-7: IC50 normal cells (WI38) / IC50 cancer cells, ns = no selectivity
[7] = test system: T98G glioblastoma cell line; assay: MTT cytotoxicity, T98G; format: cell-based, human; details: for IC50: MTT, mean ± SD, triplicate; for SI T98G: IC50 normal cells (WI38) / IC50 cancer cells, ns = no selectivity
HuTu-80 cells [8] = assay: Intracellular ROS production, CellROX Deep Red flow cytometry; format: cell-based, human; details: for CellROX Deep Red fluorescence intensity (ROS production): control 600; for ROS generation: compared to 3a and 3b and control (untreated cells)
Excerpt: Increasing the production of reactive oxygen species (ROS) by compounds characterizes the mitochondrial apoptotic pathway. Mitochondria are a potential source and target of ROS. ROS lead to disruption of mitochondrial functions and, as a consequence, to irreversible cell damage. In this regard, the effect of test compounds in HuTu-80 cells on ROS production, using flow cytometry analysis and CellROX® Deep Red flow cytometry kit was investigated. Data presented in Figure 7 show a significant increase in CellROX® Deep Red fluorescence intensity. This indicates an increase in ROS production in the presence of the tested compounds.
ROS generation was investigated using flow cytometry assay and CellROX® Deep Red flow cytometry kit. For this HuTu 80 cells were harvested at 2000 rpm for 5 min and then washed twice with ice-cold PBS, followed by resuspension in 0.1 mL of medium without FBS, to which was added 0.2 μL of Cell ROX® Deep Red and incubated at 37 °C for 30 min After three times washing the cells and suspending them in PBS, the production of ROS in the cells was immediately monitored using flow cytometer Guava easy Cyte, MERCK, NJ, USA).

[9] = test system: HuTu 80 (human duodenal adenocarcinoma); assay: MTT cytotoxicity, HuTu 80; format: cell-based; details: for IC50: mean ± SD, triplicate; for SI HuTu 80: IC50 normal cells (WI38) / IC50 cancer cells, ns = no selectivity; for anti-cancer activity against the HuTu 80 cell line relative to doxorubicin: words
[10] = test system: A549 (human lung carcinoma); assay: MTT cytotoxicity, A549; format: cell-based; details: for IC50: mean ± SD, triplicate; for SI A549: IC50 normal cells (WI38) / IC50 cancer cells, ns = no selectivity
[11] = test system: PC3 (human prostate adenocarcinoma); assay: MTT cytotoxicity, PC3; details: for IC50: mean ± SD, triplicate; for SI PC3: IC50 normal cells (WI38) / IC50 cancer cells, ns = no selectivity; for cytotoxic effect against the PC3 line relative to doxorubicin: words
human cancer cell lines = assay: MTT cytotoxicity, summary statements over several cell lines; format: cell-based; details: for IC50: Homo sapiens, HuTu80, lines other than HuTu 80 and PC3, read-out: IC50 concentration values against other human cancer lines
[12] = Homo sapiens, read-out: IC50 PC3, MTT

CCN(CC)c1ccc2c(-c3ccccc3C(=O)O)c3ccc(=[N+](CC)CC)cc-3oc2c1 [Rhodamine B]
time of release of 50% Rhodamine B [1]: ≤ 20 min

CCCCCCCCCCCCCCCC(=O)OCC(O)C[P+](c1ccccc1)(c1ccccc1)c1ccccc1 (stereo not drawn) [3k, (2-Hydroxy-3-palmitoyloxy-propyl)triphenylphosphonium trifluoromethanesulfonate]
IC50 ([2]; Homo sapiens, WI-38, MTT): 16200 ± 1300 nM | % cells with J-aggregate (red, high membrane potential) (HuTu-80 cells [3]; IC50, 48 h): 26.2% | % cells with J-monomer (green, decreased membrane potential) (HuTu-80 cells [3]; IC50, 48 h): 73.8% | % cells with J-aggregate (red, high membrane potential) (HuTu-80 cells [3]; IC50/2, 48 h): 35% | % cells with J-monomer (green, decreased membrane potential) (HuTu-80 cells [3]; IC50/2, 48 h): 65% | effect on mitochondrial membrane potential (HuTu-80 cells [3]): decrease the mitochondrial membrane potential | IC50 ([4]; Homo sapiens, M-HeLa): 40300 ± 3500 nM | SI M-HeLa [4]: ns | apoptosis induction (HuTu-80 cells [5]): actively induce apoptosis | IC50 ([6]; Homo sapiens, MCF7, MTT): 30500 ± 2500 nM | SI MCF-7 [6]: ns | IC50 ([7]; Homo sapiens, T98G): 55800 ± 4700 nM | SI T98G [7]: ns | CellROX Deep Red fluorescence intensity (ROS production) (HuTu-80 cells [8]; IC50, 48 h): 3800 | CellROX Deep Red fluorescence intensity (ROS production) (HuTu-80 cells [8]; IC50/2, 48 h): 2000 | ROS generation (HuTu-80 cells [8]): most active to generate ROS | IC50 ([9]; Homo sapiens, HuTu80, MTT): 3500 ± 300 nM | SI HuTu 80 [9]: 5 | IC50 ([10]; Homo sapiens, A549, MTT): 54700 ± 4400 nM | SI A549 [10]: ns | IC50 [11, 12]: 25000 ± 2000 nM | SI PC3 [11]: ns

C=CCOCC(O)C[P+](c1ccccc1)(c1ccccc1)c1ccccc1.[I-] (stereo not drawn) [4c, (3-(Allyloxy)-2-hydroxypropyl)triphenylphosphonium iodide]
IC50 ([2]; MTT): 3700 ± 300 nM | IC50 (human cancer cell lines): 1100 to 3700 nM | % cells with J-aggregate (red, high membrane potential) (HuTu-80 cells [3]; IC50, 48 h): 51.1% | % cells with J-monomer (green, decreased membrane potential) (HuTu-80 cells [3]; IC50, 48 h): 46.9% | % cells with J-aggregate (red, high membrane potential) (HuTu-80 cells [3]; IC50/2, 48 h): 88.5% | % cells with J-monomer (green, decreased membrane potential) (HuTu-80 cells [3]; IC50/2, 48 h): 11.3% | effect on mitochondrial membrane potential (HuTu-80 cells [3]): decrease the mitochondrial membrane potential | SI M-HeLa [4]: 3.4 | IC50 [4]: 1100 ± 90 nM | apoptosis induction (HuTu-80 cells [5]): actively induce apoptosis | SI MCF-7 [6]: 1.4 | IC50 ([6]; MTT): 2700 ± 200 nM | SI T98G [7]: 1.8 | IC50 [7]: 2000 ± 100 nM | CellROX Deep Red fluorescence intensity (ROS production) (HuTu-80 cells [8]; IC50, 48 h): 4300 | CellROX Deep Red fluorescence intensity (ROS production) (HuTu-80 cells [8]; IC50/2, 48 h): 3200 | ROS generation (HuTu-80 cells [8]): most active to generate ROS | SI HuTu 80 [9]: 12.3 | IC50 ([9]; MTT): 300 ± 20 nM | anti-cancer activity against the HuTu 80 cell line relative to doxorubicin [9]: comparable to doxorubicin activity | SI A549 [10]: 1.4 | IC50 ([10]; MTT): 2600 ± 200 nM | SI PC3 [11]: 5.3 | IC50 ([11]; read-out: IC50 PC3, MTT): 700 ± 60 nM | cytotoxic effect against the PC3 line relative to doxorubicin [11]: two times higher than doxorubicin

CCCCCCCCCCOCC(O)C[P+](c1ccccc1)(c1ccccc1)c1ccccc1 (stereo not drawn) [3j, (3-(Decyloxy)-2-hydroxypropyl)triphenylphosphonium trifluoromethanesulfonate]
IC50 ([2]; Homo sapiens, WI-38, MTT): 3100 ± 200 nM | IC50 (human cancer cell lines): 1100 to 3700 nM | % cells with J-aggregate (red, high membrane potential) (HuTu-80 cells [3]; IC50, 48 h): 50.1% | % cells with J-monomer (green, decreased membrane potential) (HuTu-80 cells [3]; IC50, 48 h): 48.2% | % cells with J-aggregate (red, high membrane potential) (HuTu-80 cells [3]; IC50/2, 48 h): 89.6% | % cells with J-monomer (green, decreased membrane potential) (HuTu-80 cells [3]; IC50/2, 48 h): 10.4% | effect on mitochondrial membrane potential (HuTu-80 cells [3]): decrease the mitochondrial membrane potential | IC50 ([4]; Homo sapiens, M-HeLa): 1100 ± 90 nM | SI M-HeLa [4]: 3 | apoptosis induction (HuTu-80 cells [5]): actively induce apoptosis | IC50 ([6]; Homo sapiens, MCF7, MTT): 2900 ± 200 nM | SI MCF-7 [6]: 1.1 | IC50 ([7]; Homo sapiens, T98G): 1700 ± 100 nM | SI T98G [7]: 2 | CellROX Deep Red fluorescence intensity (ROS production) (HuTu-80 cells [8]; IC50, 48 h): 3700 | CellROX Deep Red fluorescence intensity (ROS production) (HuTu-80 cells [8]; IC50/2, 48 h): 2500 | ROS generation (HuTu-80 cells [8]): most active to generate ROS | IC50 ([9]; Homo sapiens, HuTu80, MTT): 500 ± 30 nM | SI HuTu 80 [9]: 6.2 | anti-cancer activity against the HuTu 80 cell line relative to doxorubicin [9]: comparable to doxorubicin activity | IC50 ([10]; Homo sapiens, A549, MTT): 3700 ± 300 nM | SI A549 [10]: ns | IC50 [11, 12]: 600 ± 50 nM | SI PC3 [11]: 5.2 | cytotoxic effect against the PC3 line relative to doxorubicin [11]: two times higher than doxorubicin

COc1cccc2c1C(=O)c1c(O)c3c(c(O)c1C2=O)C[C@@](O)(C(=O)CO)C[C@@H]3O[C@H]1C[C@H](N)[C@H](O)[C@H](C)O1 [Dox, doxorubicin, reference compound]
IC50 ([2]; Homo sapiens, WI-38, MTT): 800 ± 70 nM | selectivity relative to the leading compounds (human cancer cell lines): significantly inferior to the leading compounds in selectivity | IC50 ([4]; Homo sapiens, M-HeLa): 2100 ± 100 nM | SI M-HeLa [4]: ns | IC50 ([6]; Homo sapiens, MCF7, MTT): 400 ± 30 nM | SI MCF-7 [6]: 2 | IC50 ([7]; Homo sapiens, T98G): 2000 ± 100 nM | SI T98G [7]: ns | IC50 ([9]; Homo sapiens, HuTu80, MTT): 200 ± 10 nM | SI HuTu 80 [9]: 4 | IC50 ([10]; Homo sapiens, A549, MTT): 700 ± 500 nM | SI A549 [10]: 1.1 | IC50 [11, 12]: 1400 ± 100 nM | SI PC3 [11]: ns
